Read-outs that look alike come from different tables or passages of the source.

One data set addresses H1N1 NA (Influenza A virus (H1N1), UniProt C3W5S3). Briefly: biochemical. It counts as biochemical.
Data set [1] has as its system A/Malaysia/Muar/33/2009 (H1N1). Kind of data set: Antiviral (virus inhibition) assay in MDCK cells, plaque reduction. It counts as cell-based. The settings on record: Influenza A virus.
The next data set is described as follows: in vitro. The settings on record: dog.
Data set [2] deals with MDCK cells.
Data set [3] has as its system MDCK cells. Briefly: Cell cytotoxicity, cell proliferation assay with WST-1 reagent.

As a reminder, the melting point is the temperature, or range, at which the solid turns liquid. Turning to `COc1c(O)ccc(/C=C/C(=O)O)c1[N+](=O)[O-]` [MY24], the melting point was in the range of 165 to 169 °C. Also, on H1N1 NA, the “ΔGbind (estimated experimental)” value is -4.31 kcal/mol.

Broadly, the EC50 is the concentration needed to bring the measured effect to its halfway point. Regarding `CCCCOC(=O)/C=C/c1cc(OC)c(O)c([N+](=O)[O-])c1` [MY15], the “ΔGbind (estimated experimental)” value on H1N1 NA was -3.91 kcal/mol. Also, in data set [1], the EC50 is around 0.95 µM. Also, the CC50 in the data set “in vitro” is 352 µM. Besides, the “toxicity on the MDCK cells” value with MDCK cells [2] was “without showing any signs of toxicity at high concentrations”.

Consider `COC(=O)/C=C/c1cc(OC)c(O)c([N+](=O)[O-])c1` [MY13], for which the “ΔGbind (estimated experimental)” value on H1N1 NA was -4.19 kcal/mol.

Regarding `COc1ccc(S(=O)(=O)c2ccc(/C=C/C(=O)O)cc2OC)cc1` [MY19], at H1N1 NA, the “ΔGbind (estimated experimental)” value is -4.38 kcal/mol.

As to `COc1cc(C=O)cc(N=C(N)N)c1O` [MY21, guanidino vanillin], the “ΔGbind (estimated experimental)” value at H1N1 NA is -5.60 kcal/mol. In addition, a half-maximal response in data set [1] (EC50) required 1.7 ± 0.02 µM. This molecule also showed a CC50 in the data set “in vitro” of 478 µM. Moreover, the “toxicity on the MDCK cells” value in the data set on MDCK cells [2] is reported as “without showing any signs of toxicity at high concentrations”.

Take `COc1cc(C=O)ccc1O` [VN, Vanillin, reference compound]: on H1N1 NA, the “ΔGbind (estimated experimental)” value was -4.78 kcal/mol. A half-maximal response in data set [1] (EC50) required 6.05 ± 4.3 µM. Further, in “in vitro”, the CC50 amounted to 657 µM. The “toxicity on the MDCK cells” value in the data set with MDCK cells [2] is recorded as “without showing any signs of toxicity at high concentrations”.

On to `COc1cc(/C=C/C(=O)O)ccc1S(=O)(=O)c1ccc(Oc2ccccc2)cc1` [MY20], for which the “ΔGbind (estimated experimental)” value at H1N1 NA was -3.91 kcal/mol.

Consider `CCOC(=O)/C=C/c1cc(OC)c(O)c([N+](=O)[O-])c1` [MY2], for which the “ΔGbind (estimated experimental)” value on H1N1 NA is -4.70 kcal/mol.

On to `CCOC(=O)/C=C/c1cc(OC)c(OC(C)C)c([N+](=O)[O-])c1` [MY3], for which the “ΔGbind (estimated experimental)” value at H1N1 NA was -5.27 kcal/mol. In addition, in data set [1], the midpoint of the response, the EC50, lay at 7.5 ± 9.3 µM. The same molecule showed a CC50 in “in vitro” of 321 µM. Also, the “toxicity on the MDCK cells” value with MDCK cells [2] was “without showing any signs of toxicity at high concentrations”.

In general, inhibition refers to the change of the read-out against control, counted positive when it falls. Turning to `COc1cc(/C=C/C(=O)O)ccc1O` [FA, Ferulic acid, reference compound], the “ΔGbind (estimated experimental)” value on H1N1 NA is -5.02 kcal/mol. Also, the inhibition at 125 µg/mL at H1N1 NA (read-out: % inhibition of H1N1 NA) is 86%. Also, the EC50 in data set [1] worked out at 1.32 ± 0.08 µM. The CC50 in the data set “in vitro” (MDCK cells) was determined as 702 µM. In the data set with MDCK cells [3], the “toxicity on the MDCK cells” value was “without showing any signs of toxicity at high concentrations”.

In the case of `COc1cc(C=O)cc(O)c1O` [MY23, 3-hydroxyvanillin], at H1N1 NA, the “% inhibition of H1N1 NA” value is given as “high inhibition” and the “ΔGbind (estimated experimental)” value was -5.43 kcal/mol. In data set [1], this molecule had an EC50 of 40.5 ± 3.7 µM. This molecule also returned a CC50 in “in vitro” of 601 µM. Also, in the data set on MDCK cells [2], the “toxicity on the MDCK cells” value is reported as “significant reduction in cell viability”.

`COC(=O)/C=C/c1ccc(O)c(OC)c1` [MY9]: the “ΔGbind (estimated experimental)” value on H1N1 NA was -4.85 kcal/mol.

In the case of `CCCCOC(=O)/C=C/c1ccc(O)c(OC)c1` [MY12], the “ΔGbind (estimated experimental)” value on H1N1 NA was -3.91 kcal/mol.

As for `CCOC(=O)/C=C/c1ccc(O)c(OC)c1` [MY10], the “ΔGbind (estimated experimental)” value on H1N1 NA was -4.42 kcal/mol.

Consider `CCCOC(=O)/C=C/c1ccc(O)c(OC)c1` [MY11], for which, at H1N1 NA, the “ΔGbind (estimated experimental)” value is -4.36 kcal/mol.

Regarding `COc1cc(C=O)cc(NCCO)c1O` [MY22], the “ΔGbind (estimated experimental)” value at H1N1 NA is -4.67 kcal/mol.

With `CCC(CC)O[C@@H]1C=C(C(=O)O)C[C@H](N)[C@H]1NC(C)=O` [Oseltamivir carboxylate, reference compound], the EC50 in data set [1] worked out at 35 µM. The molecule also had a CC50 in the data set “in vitro” of 351 µM.

In the case of `COc1cccc(S(=O)(=O)c2ccc(/C=C/C(=O)O)cc2OC)c1` [MY18], the “ΔGbind (estimated experimental)” value on H1N1 NA was -3.91 kcal/mol.

For `CC(=O)N[C@H]1[C@H]([C@H](O)[C@H](O)CO)OC(C(=O)O)=C[C@@H]1O` [DANA, 2-deoxy-2,3-didehydro-N-acetylneuraminic acid, reference compound], the “ΔGbind (estimated experimental)” value on H1N1 NA was -6.50 kcal/mol.

`CCCOC(=O)/C=C/c1cc(OC)c(O)c([N+](=O)[O-])c1` [MY14]: the “ΔGbind (estimated experimental)” value on H1N1 NA is -4.76 kcal/mol.
